The results in this text go back to patent US9376425B2, “Heterocyclic compounds as MDM2 inhibitors for the treatment of cancer” (AMGEN INC., priority 2011, dated 2016).

One may read the IC50 as the midpoint of a concentration-inhibition curve.

Some results are limits rather than exact numbers.

T1 sequence (Q00987 1-188): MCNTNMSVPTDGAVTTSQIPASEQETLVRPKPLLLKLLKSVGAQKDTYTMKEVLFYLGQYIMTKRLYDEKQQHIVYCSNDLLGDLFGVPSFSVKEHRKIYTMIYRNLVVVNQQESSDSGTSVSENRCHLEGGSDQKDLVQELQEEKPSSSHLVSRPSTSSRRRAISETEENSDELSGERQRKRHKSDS

The test addresses T1, human MDM2 (GST-hMDM2 1-188), interaction with biotinylated-p53 (1-83) (Homo sapiens, UniProt Q00987).
T1 construct: Amino acid residues 1-188 of human MDM2 were expressed; made in house; host or cells: Escherichia coli
Nature of the test: improved HTRF assay (HTRF2 assay), inhibition of HDM2-p53 interaction. The format is binding. To be noted: 0.2 nM GST-hMDM2, 0.5 nM biotinylated-p53, 100 mM KF. The procedure, abridged: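 Time-resolved fluorescence (HTRF) read after >4 h equilibration with SA-XLent/anti-GST cryptate/KF detection reagents. Reaction: compound plus GST-hMDM2 for 20 min at room temperature, then E. coli-expressed biotinylated p53 residues 1-83 for 60 min, 2% DMSO final. Inhibition expressed versus nutlin-3.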
A general note: Time-resolved FRET reads energy transfer from a long-lived donor to a nearby acceptor.
For `C[C@@H]1CCCN1S(=O)(=O)C[C@H](C1CC1)N1C(=O)[C@@H](CC(=O)O)O[C@H](c2cccc(Cl)c2)[C@H]1c1ccc(Cl)cc1` (single isomer, unassigned) [Example 304, 2-((2R,5R,6R)-6-(3-Chlorophenyl)-5-(4-chlorophenyl)-4-((S)-1-cyclopropyl-2-(((R)-2-methylpyrrolidin-1-yl)sulfonyl)ethyl)-3-oxomorpholin-2-yl)acetic acid or 2-((2S,5R,6R)-6-(3-chlorophenyl)-5-(4-chlorophenyl)-4-((S)-1-cyclopropyl-2-(((R)-2-methylpyrrolidin-1-yl)sulfonyl)ethyl)-3-oxomorpholin-2-yl)acetic acid], the IC50 is less than 1 nM. In turn, `C[C@@H]1CCCN1S(=O)(=O)C[C@H](C1CC1)N1C(=O)[C@@H](CC(=O)O)O[C@H](c2cccc(Cl)c2)[C@H]1c1ccc(Cl)cc1` (single isomer, unassigned) [Example 305, 2-((2R,5R,6R)-6-(3-Chlorophenyl)-5-(4-chlorophenyl)-4-((S)-1-cyclopropyl-2-(((R)-2-methylpyrrolidin-1-yl)sulfonyl)ethyl)-3-oxomorpholin-2-yl)acetic acid or 2-((2S,5R,6R)-6-(3-chlorophenyl)-5-(4-chlorophenyl)-4-((S)-1-cyclopropyl-2-(((R)-2-methylpyrrolidin-1-yl)sulfonyl)ethyl)-3-oxomorpholin-2-yl)acetic acid] had an IC50 of less than 1 nM. With `CC1(C)CCCN1S(=O)(=O)C[C@H](C1CC1)N1C(=O)[C@@H](CC(=O)O)O[C@H](c2cccc(Cl)c2)[C@H]1c1ccc(Cl)cc1` (single isomer, unassigned) [Example 306, 2-((2R,5R,6R)-6-(3-Chlorophenyl)-5-(4-chlorophenyl)-4-((S)-1-cyclopropyl-2-((2,2-dimethylpyrrolidin-1-yl)sulfonyl)ethyl)-3-oxomorpholin-2-yl)acetic acid or 2-((2R,5R,6R)-6-(3-chlorophenyl)-5-(4-chlorophenyl)-4-((S)-1-cyclopropyl-2-((2,2-dimethylpyrrolidin-1-yl)sulfonyl)ethyl)-3-oxomorpholin-2-yl)acetic acid] the figure was less than 1 nM; with `CC1(C)CCCN1S(=O)(=O)C[C@H](C1CC1)N1C(=O)[C@@H](CC(=O)O)O[C@H](c2cccc(Cl)c2)[C@H]1c1ccc(Cl)cc1` (single isomer, unassigned) [Example 307, 2-((2R,5R,6R)-6-(3-Chlorophenyl)-5-(4-chlorophenyl)-4-((S)-1-cyclopropyl-2-((2,2-dimethylpyrrolidin-1-yl)sulfonyl)ethyl)-3-oxomorpholin-2-yl)acetic acid or 2-((2R,5R,6R)-6-(3-chlorophenyl)-5-(4-chlorophenyl)-4-((S)-1-cyclopropyl-2-((2,2-dimethylpyrrolidin-1-yl)sulfonyl)ethyl)-3-oxomorpholin-2-yl)acetic acid], less than 1 nM. `CC(C)(C)S(=O)(=O)C[C@H](C1CC1)N1C(=O)[C@@H](CC(=O)O)O[C@H](c2cccc(Cl)c2)[C@H]1c1ccc(Cl)c(F)c1` (single isomer, unassigned) [Example 308, 2-((2R,5R,6R)-4-((S)-2-(tert-Butylsulfonyl)-1-cyclopropylethyl)-5-(4-chloro-3-fluorophenyl)-6-(3-chlorophenyl)-3-oxomorpholin-2-yl)acetic acid or 2-((2S,5R,6R)-4-((S)-2-(tert-butylsulfonyl)-1-cyclopropylethyl)-5-(4-chloro-3-fluorophenyl)-6-(3-chlorophenyl)-3-oxomorpholin-2-yl)acetic acid] had an IC50 of less than 1 nM.
